Common to all, as to format: cell-based
Assay [1] addresses T1, SLC1A4 (Homo sapiens, UniProt P43007).
T1 construct: expressed in transfected cells; host or cells: Xenopus laevis oocytes (cRNA injection)
T1 sequence (P43007 1-532): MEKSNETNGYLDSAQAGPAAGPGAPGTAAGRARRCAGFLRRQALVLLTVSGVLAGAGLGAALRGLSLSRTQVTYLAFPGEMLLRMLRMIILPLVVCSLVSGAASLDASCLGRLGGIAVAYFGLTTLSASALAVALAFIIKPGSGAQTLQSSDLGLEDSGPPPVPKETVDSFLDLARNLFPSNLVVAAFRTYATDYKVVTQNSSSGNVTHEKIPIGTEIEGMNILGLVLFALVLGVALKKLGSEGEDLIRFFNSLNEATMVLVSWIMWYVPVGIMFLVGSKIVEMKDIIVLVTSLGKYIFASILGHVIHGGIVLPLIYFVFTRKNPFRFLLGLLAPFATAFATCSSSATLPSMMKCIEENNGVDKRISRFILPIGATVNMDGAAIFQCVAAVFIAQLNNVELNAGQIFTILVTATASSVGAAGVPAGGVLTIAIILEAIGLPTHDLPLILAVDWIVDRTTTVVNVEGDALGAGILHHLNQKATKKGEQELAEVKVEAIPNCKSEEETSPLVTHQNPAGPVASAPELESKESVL
Kind of assay: TEVC block of anion leak conductance in oocytes. An excerpt:
(§1) The currents induced by substrates and blocked by hydroxyproline analogs shared a reversal potential shown in the current/voltage relationship consistent with the conductance originating from the same ion pore (Figure 3, inset). […] The observed dose–response relationships are independent of competing substrates, and thus provide a direct measure of the equilibrium inhibition constant (Ki). Each synthetic hydroxyproline analog was functionally assessed for its capacity to inhibit SLC1A4 and SLC1A5 leak currents with affinities reported in Table 1 as determined or approximated Ki.
(§2) Two-electrode voltage clamp (TEVC) transporter currents were recorded with a GeneClamp 500 amplifier and Digidata 1320A analog–digital interface (Molecular Devices, San Jose, CA, USA). Electrodes (0.2–1.0 MΩ) were filled with 3M KCl and the recording chamber was grounded with an agar bridge. Data were acquired with Axograph (v1.7.6) and LabChart (v7) and analyzed with Kaleidagraph software (v4.1) (Synergy, Reading, PA, USA). Uncoupled anion currents associated with the transport of substrate and block of SLC1A4 or SLC1A5 mediated leak conductance were recorded in the presence of Ringer with 50% substitution of NaCl by NaSCN to amplify the non-transported anion conductance.
(§3) Figure 3 AHPCs block a leak current in SLC1A4 and SLC1A5. […] Inset (A): The current and voltage relationship for SLC1A4 currents activated by Ala or blocked by 14b are determined by subtracting voltage jumps in buffer.

The next assay addresses T2, mSLC1A5 (Mus musculus, UniProt P51912).
T2 construct: expressed in transfected cells; host or cells: Xenopus laevis oocytes (cRNA injection)
T2 sequence (P51912 1-553): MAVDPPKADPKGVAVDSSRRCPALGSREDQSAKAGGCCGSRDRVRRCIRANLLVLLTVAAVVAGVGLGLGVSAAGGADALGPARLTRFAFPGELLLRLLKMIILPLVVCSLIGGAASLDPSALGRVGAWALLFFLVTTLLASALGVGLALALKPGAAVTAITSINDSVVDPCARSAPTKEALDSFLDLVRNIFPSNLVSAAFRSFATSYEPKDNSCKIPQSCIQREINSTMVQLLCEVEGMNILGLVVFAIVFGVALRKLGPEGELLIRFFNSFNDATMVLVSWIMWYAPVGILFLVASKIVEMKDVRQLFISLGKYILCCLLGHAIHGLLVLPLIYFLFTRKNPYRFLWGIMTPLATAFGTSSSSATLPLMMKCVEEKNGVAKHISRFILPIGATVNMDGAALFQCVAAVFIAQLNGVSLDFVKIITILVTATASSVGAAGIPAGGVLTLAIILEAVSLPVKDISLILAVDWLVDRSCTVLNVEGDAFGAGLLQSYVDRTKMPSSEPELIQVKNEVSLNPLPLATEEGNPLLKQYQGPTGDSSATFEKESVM
Nature of the assay: TEVC block of anion leak conductance in oocytes.
Source text: as §1, §2, §3

For assay [2], the target named is T1, SLC1A4. Nature of the assay: [3H]L-alanine heteroexchange (trans-stimulation) in preloaded oocytes. Particulars: 3 µM BPOHP, 1 mM L-alanine. The protocol: (§4) Uptake was halted by washing 3 times with 4 °C ND96 buffer. Oocytes were then lysed in 0.1% Triton X-100, and radioactivity was counted via liquid scintillation. Dose response curves were generated by fitting fractional inhibition (I) to the expression I = Imax × [inhibitor]/([inhibitor] + IC50).

The target in the next assay is T3, SLC1A5 (Mus musculus, UniProt P51912).
T3 construct: expressed in transfected cells; host or cells: Xenopus laevis oocytes (cRNA injection)
T3 sequence (P51912 1-553): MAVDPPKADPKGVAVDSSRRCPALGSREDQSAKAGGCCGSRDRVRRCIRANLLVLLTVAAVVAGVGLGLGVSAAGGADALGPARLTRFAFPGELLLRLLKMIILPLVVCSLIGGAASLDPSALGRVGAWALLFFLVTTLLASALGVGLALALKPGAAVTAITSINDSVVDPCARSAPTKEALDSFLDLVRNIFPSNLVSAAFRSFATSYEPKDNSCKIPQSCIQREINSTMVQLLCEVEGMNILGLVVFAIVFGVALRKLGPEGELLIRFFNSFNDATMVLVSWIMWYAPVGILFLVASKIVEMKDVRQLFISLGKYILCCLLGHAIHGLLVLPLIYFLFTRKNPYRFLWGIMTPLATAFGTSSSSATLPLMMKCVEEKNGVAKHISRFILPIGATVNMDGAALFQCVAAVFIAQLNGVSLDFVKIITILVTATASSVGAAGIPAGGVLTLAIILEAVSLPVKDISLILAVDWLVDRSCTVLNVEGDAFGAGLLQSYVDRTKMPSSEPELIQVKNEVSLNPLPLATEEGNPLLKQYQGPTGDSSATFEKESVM
Described as above. To be noted: 3 µM BPOHP, 1 mM L-alanine. The protocol: as §4

Like-named read-outs stand apart in the source and are kept apart here. Some results are limits rather than exact numbers.

These results are taken from publication PMC11123841, “Discovery and Synthesis of Hydroxy-L-Proline Blockers of the Neutral Amino Acid Transporters SLC1A4 (ASCT1) and SLC1A5 (ASCT2)” (Molecules, 2024).

For the compound `O=C(O)[C@H]1NC[C@@H](OCc2ccccc2)[C@@H]1O` [14c], the “block of anion leak conductance / inhibition” value at SLC1A4 [1] (SLC1A4) and on mSLC1A5 (SLC1A5) was “block the anion conductance” in each case. Also, the “fold higher affinity than 12a” value on SLC1A4 [1] (SLC1A4) and on mSLC1A5 (SLC1A5) was ~ 6 fold each time. For the same compound, the inhibitory constant (Ki) on SLC1A4 [1] (SLC1A4, read-out: Ki) is under 100 µM; on mSLC1A5 (SLC1A5, read-out: Ki), under 100 µM.

For `CO[C@H]1CN[C@H](C(=O)O)[C@@H]1O` [17a], the inhibition constant Ki is over 500 µM on SLC1A4 [1] (SLC1A4, read-out: Ki) and over 500 µM at mSLC1A5 (SLC1A5, read-out: Ki).

As to `CC(C)O[C@H]1CN[C@H](C(=O)O)[C@@H]1O` [17b], the inhibition constant Ki on SLC1A4 [1] (from dose–response of blocked anion conductance, compounds tested only once without standard error, read-out: SLC1A4 Ki) is 505 ± 105 µM; at mSLC1A5 (mSLC1A5, from dose–response of blocked anion conductance, compounds tested only once without standard error, read-out: SLC1A5 Ki), about 400 µM.

Consider `O=C(O)[C@H]1NC[C@H](OCc2ccccc2)[C@H]1O` [17c, cis-3-hydroxy-trans-4-benzyloxy-L-proline], for which the Ki at SLC1A4 [1] (SLC1A4, read-out: Ki) is over 500 µM; on mSLC1A5 (SLC1A5, read-out: Ki), over 500 µM.

`C[C@H](N)C(=O)O` [L-Ala, L-alanine, reference compound]: the “[3H]L-alanine exchange” value at SLC1A4 [2] and on SLC1A5 was “induces exchange” throughout.

Broadly, the Ki is a measure of affinity in units of concentration, obtained from inhibition or displacement.
